Test results: patent US20110059114A1, “Compositions and Methods for the Treatment of Radioresistant Glioma Stem Cells” (DUKE UNIVERSITY, priority 2009, published 2011)

Assays:
Format in all cases: cell-based, human
[1] = test system: CD133+ glioma stem cells; assay: Caspase-Glo 3/7 assay, relative caspase 3/7 activities
Experimental: FIG. 2 is a series of graphs illustrating that γ-secretase inhibitors enhance radiation-induced cell death in glioma stem cells. (A) T4302 CD 133+ cells were pre-treated with DAPT or L685,458 for 4 hours and irradiated at 3 Gy. Percentage of dead cells was determined by trypan blue exclusion assay at 48 hours after radiation exposure. (B) T4302 CD 133+ cells were treated with GSIs ±radiation as indicated. Cells were then plated at 3000 cells per well in 96-well plates. Relative caspase 3/7 activities were determined by normalizing caspase activities to the corresponding cell titers. (C) T4302 CD 133+ cells were treated as described in FIG. 2A. 24 or 48 hours after radiation exposure, cells were labeled with FITC-conjugated Annexin V staining kit (BD Sciences) according to manufacturer's instructions and analyzed by flow cytometry. […] Relative caspase 3/7 activities were determined at 72 hours after radiation. (E) T4302 CD133+ cells were pre-treated with DAPT at indicated concentrations for 4 hours and irradiated at 3 Gy. Relative caspase activities were determined at 48 or 72 hours after radiation. *: p<0.01 by Student's t-test; #: p<0.01 by one-way ANOVA.
The caspase activities at 48 or 72 hours after radiation were measured using the Caspase-Glo 3/7 assay (Promega) according to the manufacturer's instructions. The caspase activities were normalized to the corresponding cell titers to obtain the relative caspase 3/7 activities.

[2] = test system: Notch signaling; assay: Notch-responsive luciferase reporter (RBP-Jκ reporter) assay; settings: T4302 CD133+ cells; 2 μM DAPT or 0.5 μM L685,458 over night
From the text: FIG. 1 is a series of graphs illustrating that γ-secretase inhibitors reduce cell growth and clonogenic survival of glioma stem cells following radiation. (A) T4302 CD133+ glioma stem cells were transfected with a Notch-responsive luciferase reporter (RBP-JK reporter) pre-mixed with the vector directing constitutive expression of Renilla luciferase. Cells were left unirradiated or irradiated at 3 Gy, and were then collected to measure luciferase activities at time points as indicated. […] The relative mRNA levels of Hes2 were determined by quantitative real-time PCR at the time points as indicated. […] Total viable cell numbers were then determined by the CellTiter-Glo Luminescent Cell Viability Assay (Promega) for the following five days. […] Cells were then plated to form neurospheres, and the surviving fractions were determined as described in methods. […] (F,G) Neurosphere formation of T3359 and T4105 CD 133+ cells treated with GSIs alone, 3-Gy radiation alone, or the combination was determined as described in FIG. 1E. *: p<0.05 by Student's t-test; #: p<0.001 by one-way ANOVA.
Luciferase assay. […] The luciferase activities were determined by the Dual-luciferase assay system (Promega).

[3] = test system: T4302 CD133+ cells; assay: Trypan blue exclusion assay; settings: two days after 3-Gy radiation
Experimental: FIG. 2 is a series of graphs illustrating that γ-secretase inhibitors enhance radiation-induced cell death in glioma stem cells. (A) T4302 CD 133+ cells were pre-treated with DAPT or L685,458 for 4 hours and irradiated at 3 Gy. Percentage of dead cells was determined by trypan blue exclusion assay at 48 hours after radiation exposure. (B) T4302 CD 133+ cells were treated with GSIs ±radiation as indicated. Cells were then plated at 3000 cells per well in 96-well plates. Relative caspase 3/7 activities were determined by normalizing caspase activities to the corresponding cell titers. (C) T4302 CD 133+ cells were treated as described in FIG. 2A. 24 or 48 hours after radiation exposure, cells were labeled with FITC-conjugated Annexin V staining kit (BD Sciences) according to manufacturer's instructions and analyzed by flow cytometry. (D) T4302 CD 133+ cells were pre-treated with 2 μM DAPT for 4 hours, and were left unirradiated or irradiated at 1, 2 or 3 Gy. Relative caspase 3/7 activities were determined at 72 hours after radiation. (E) T4302 CD133+ cells were pre-treated with DAPT at indicated concentrations for 4 hours and irradiated at 3 Gy. Relative caspase activities were determined at 48 or 72 hours after radiation. *: p<0.01 by Student's t-test; #: p<0.01 by one-way ANOVA.

SMILES: CC(NC(=O)Cc1cc(F)cc(F)c1)C(=O)NC(C(=O)OC(C)(C)C)c1ccccc1 [DAPT, N-[N-(3,5-Difluorophenacetyl-L-alanyl)]-S-phenylglycine t-Butyl Ester]
- radiosensitizing effect ([1]; 200 nM DAPT, 3 Gy): still being effective
- radiation-induced cell death ([1]; 2 μM DAPT added 24 hours after radiation, T4105 or T4302 CD133+ cells): increased radiation-induced cell death
- radiation-induced cell death (caspase 3/7) ([1]; 2 μM, radiation 1, 2 or 3 Gy, 72 hours): enhanced radiation-induced cell death
- radiosensitizing effects, dependence on concentration ([1]; 3 Gy, 48 or 72 hours after radiation): concentration-dependent effect
- radiation-induced cell death of cells infected with control lentivirus ([1]; irradiated, T4302 CD133+): sensitive to DAPT
- Notch signaling in glioma stem cells (Notch-responsive luciferase reporter) [2]: blocked
- dead cells [3]: 60%
